Columns and labels:
Assay in all cases: relative viability (nuclei count vs DMSO), 5 days (fraction); higher = more cells survive
Elesclomol + Bortezomib = compound: CN(NC(=O)CC(=O)NN(C)C(=S)c1ccccc1)C(=S)c1ccccc1 [Elesclomol] + CC(C)C[C@H](NC(=O)[C@H](Cc1ccccc1)NC(=O)c1cnccn1)B(O)O [Bortezomib] (partner 0.002 µM)
Summary of the method: (§1)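 Lung cancer cell lines in 1536-well plates were dosed by pin tool the day after seeding, either with one drug alone or with a fixed anchor-drug dose plus five library-drug doses (not always all listed) in √10 steps. After 5 days, cells were fixed and their nuclei stained in one step (final 0.05% Triton X-100, 1% formaldehyde, 1 ug/ml Hoechst), then counted on 4× images. Relative viability is the nuclei count in treated wells divided by that in vehicle wells. Values are medians of duplicate plates.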

Elesclomol + Pictilisib = compound: CN(NC(=O)CC(=O)NN(C)C(=S)c1ccccc1)C(=S)c1ccccc1 [Elesclomol] + CS(=O)(=O)N1CCN(Cc2cc3nc(-c4cccc5[nH]ncc45)nc(N4CCOCC4)c3s2)CC1 [Pictilisib] (partner 1 µM)
Summary of the method: as §1

Elesclomol + Crizotinib = compound: CN(NC(=O)CC(=O)NN(C)C(=S)c1ccccc1)C(=S)c1ccccc1 [Elesclomol] + C[C@@H](Oc1cc(-c2cnn(C3CCNCC3)c2)cnc1N)c1c(Cl)ccc(F)c1Cl [Crizotinib] (partner 1 µM)
Summary of the method: as §1

Elesclomol + Linsitinib = compound: CN(NC(=O)CC(=O)NN(C)C(=S)c1ccccc1)C(=S)c1ccccc1 [Elesclomol] + C[C@]1(O)C[C@@H](c2nc(-c3ccc4ccc(-c5ccccc5)nc4c3)c3c(N)nccn32)C1 [Linsitinib] (partner 1 µM)
Summary of the method: as §1

Elesclomol + Alpelisib = compound: CN(NC(=O)CC(=O)NN(C)C(=S)c1ccccc1)C(=S)c1ccccc1 [Elesclomol] + Cc1nc(NC(=O)N2CCC[C@H]2C(N)=O)sc1-c1ccnc(C(C)(C)C(F)(F)F)c1 [Alpelisib] (partner 2 µM)
Summary of the method: as §1

PC-3 [JPC-3]
relative viability (Elesclomol + Bortezomib; first compound 0.003162 µM): 0.82 | relative viability (Elesclomol + Bortezomib; first compound 0.01 µM): 0.73 | relative viability (Elesclomol + Bortezomib; first compound 0.03162 µM): 0.764 | relative viability (Elesclomol + Bortezomib; first compound 0.1 µM): 0.755 | relative viability (Elesclomol + Pictilisib; first compound 0.003162 µM): 0.738 | relative viability (Elesclomol + Pictilisib; first compound 0.01 µM): 0.604 | relative viability (Elesclomol + Pictilisib; first compound 0.03162 µM): 0.878 | relative viability (Elesclomol + Pictilisib; first compound 0.1 µM): 0.581 | relative viability (Elesclomol + Crizotinib; first compound 0.003162 µM): 0.972 | relative viability (Elesclomol + Crizotinib; first compound 0.01 µM): 0.959 | relative viability (Elesclomol + Crizotinib; first compound 0.03162 µM): 1.02 | relative viability (Elesclomol + Crizotinib; first compound 0.1 µM): 0.743 | relative viability (Elesclomol + Linsitinib; first compound 0.003162 µM): 0.958 | relative viability (Elesclomol + Linsitinib; first compound 0.01 µM): 0.907 | relative viability (Elesclomol + Linsitinib; first compound 0.03162 µM): 0.984 | relative viability (Elesclomol + Linsitinib; first compound 0.1 µM): 0.791 | relative viability (Elesclomol + Alpelisib; first compound 0.003162 µM): 0.981 | relative viability (Elesclomol + Alpelisib; first compound 0.01 µM): 0.958 | relative viability (Elesclomol + Alpelisib; first compound 0.03162 µM): 1.04 | relative viability (Elesclomol + Alpelisib; first compound 0.1 µM): 0.778

PC-14
relative viability (Elesclomol + Bortezomib; first compound 0.003162 µM): 0.862 | relative viability (Elesclomol + Bortezomib; first compound 0.01 µM): 0.244 | relative viability (Elesclomol + Bortezomib; first compound 0.03162 µM): 0.0404 | relative viability (Elesclomol + Bortezomib; first compound 0.1 µM): 0.0297 | relative viability (Elesclomol + Pictilisib; first compound 0.003162 µM): 0.417 | relative viability (Elesclomol + Pictilisib; first compound 0.01 µM): 0.0984 | relative viability (Elesclomol + Pictilisib; first compound 0.03162 µM): 0.05 | relative viability (Elesclomol + Pictilisib; first compound 0.1 µM): 0.0156 | relative viability (Elesclomol + Crizotinib; first compound 0.003162 µM): 0.918 | relative viability (Elesclomol + Crizotinib; first compound 0.01 µM): 0.526 | relative viability (Elesclomol + Crizotinib; first compound 0.03162 µM): 0.203 | relative viability (Elesclomol + Crizotinib; first compound 0.1 µM): 0.0548 | relative viability (Elesclomol + Linsitinib; first compound 0.003162 µM): 0.98 | relative viability (Elesclomol + Linsitinib; first compound 0.01 µM): 0.85 | relative viability (Elesclomol + Linsitinib; first compound 0.03162 µM): 0.0931 | relative viability (Elesclomol + Linsitinib; first compound 0.1 µM): 0.0455 | relative viability (Elesclomol + Alpelisib; first compound 0.003162 µM): 0.913 | relative viability (Elesclomol + Alpelisib; first compound 0.01 µM): 0.558 | relative viability (Elesclomol + Alpelisib; first compound 0.03162 µM): 0.0506 | relative viability (Elesclomol + Alpelisib; first compound 0.1 µM): 0.0344

RERF-LC-KJ
relative viability (Elesclomol + Bortezomib; first compound 0.003162 µM): 0.943 | relative viability (Elesclomol + Bortezomib; first compound 0.01 µM): 0.536 | relative viability (Elesclomol + Bortezomib; first compound 0.03162 µM): 0.322 | relative viability (Elesclomol + Bortezomib; first compound 0.1 µM): 0.276 | relative viability (Elesclomol + Pictilisib; first compound 0.003162 µM): 0.408 | relative viability (Elesclomol + Pictilisib; first compound 0.01 µM): 0.19 | relative viability (Elesclomol + Pictilisib; first compound 0.03162 µM): 0.243 | relative viability (Elesclomol + Pictilisib; first compound 0.1 µM): 0.234 | relative viability (Elesclomol + Crizotinib; first compound 0.003162 µM): 0.832 | relative viability (Elesclomol + Crizotinib; first compound 0.01 µM): 0.473 | relative viability (Elesclomol + Crizotinib; first compound 0.03162 µM): 0.373 | relative viability (Elesclomol + Crizotinib; first compound 0.1 µM): 0.336 | relative viability (Elesclomol + Linsitinib; first compound 0.003162 µM): 0.897 | relative viability (Elesclomol + Linsitinib; first compound 0.01 µM): 0.752 | relative viability (Elesclomol + Linsitinib; first compound 0.03162 µM): 0.412 | relative viability (Elesclomol + Linsitinib; first compound 0.1 µM): 0.322 | relative viability (Elesclomol + Alpelisib; first compound 0.003162 µM): 0.702 | relative viability (Elesclomol + Alpelisib; first compound 0.01 µM): 0.352 | relative viability (Elesclomol + Alpelisib; first compound 0.03162 µM): 0.252 | relative viability (Elesclomol + Alpelisib; first compound 0.1 µM): 0.275

SK-LU-1
relative viability (Elesclomol + Bortezomib; first compound 0.003162 µM): 1.45 | relative viability (Elesclomol + Bortezomib; first compound 0.01 µM): 0.424 | relative viability (Elesclomol + Bortezomib; first compound 0.03162 µM): 0.38 | relative viability (Elesclomol + Bortezomib; first compound 0.1 µM): 0.116 | relative viability (Elesclomol + Pictilisib; first compound 0.003162 µM): 0.55 | relative viability (Elesclomol + Pictilisib; first compound 0.01 µM): 0.469 | relative viability (Elesclomol + Pictilisib; first compound 0.03162 µM): 0.319 | relative viability (Elesclomol + Pictilisib; first compound 0.1 µM): 0.178 | relative viability (Elesclomol + Crizotinib; first compound 0.003162 µM): 0.904 | relative viability (Elesclomol + Crizotinib; first compound 0.01 µM): 0.677 | relative viability (Elesclomol + Crizotinib; first compound 0.03162 µM): 0.362 | relative viability (Elesclomol + Crizotinib; first compound 0.1 µM): 0.141 | relative viability (Elesclomol + Linsitinib; first compound 0.003162 µM): 1.11 | relative viability (Elesclomol + Linsitinib; first compound 0.01 µM): 0.835 | relative viability (Elesclomol + Linsitinib; first compound 0.03162 µM): 0.405 | relative viability (Elesclomol + Linsitinib; first compound 0.1 µM): 0.12 | relative viability (Elesclomol + Alpelisib; first compound 0.003162 µM): 0.987 | relative viability (Elesclomol + Alpelisib; first compound 0.01 µM): 0.674 | relative viability (Elesclomol + Alpelisib; first compound 0.03162 µM): 0.294 | relative viability (Elesclomol + Alpelisib; first compound 0.1 µM): 0.1

SW 1573
relative viability (Elesclomol + Bortezomib; first compound 0.003162 µM): 1.02 | relative viability (Elesclomol + Bortezomib; first compound 0.01 µM): 0.174 | relative viability (Elesclomol + Bortezomib; first compound 0.03162 µM): 0.105 | relative viability (Elesclomol + Bortezomib; first compound 0.1 µM): 0.103 | relative viability (Elesclomol + Pictilisib; first compound 0.003162 µM): 0.479 | relative viability (Elesclomol + Pictilisib; first compound 0.01 µM): 0.121 | relative viability (Elesclomol + Pictilisib; first compound 0.03162 µM): 0.104 | relative viability (Elesclomol + Pictilisib; first compound 0.1 µM): 0.074 | relative viability (Elesclomol + Crizotinib; first compound 0.003162 µM): 0.806 | relative viability (Elesclomol + Crizotinib; first compound 0.01 µM): 0.344 | relative viability (Elesclomol + Crizotinib; first compound 0.03162 µM): 0.147 | relative viability (Elesclomol + Crizotinib; first compound 0.1 µM): 0.128 | relative viability (Elesclomol + Linsitinib; first compound 0.003162 µM): 0.706 | relative viability (Elesclomol + Linsitinib; first compound 0.01 µM): 0.224 | relative viability (Elesclomol + Linsitinib; first compound 0.03162 µM): 0.116 | relative viability (Elesclomol + Linsitinib; first compound 0.1 µM): 0.102 | relative viability (Elesclomol + Alpelisib; first compound 0.003162 µM): 0.728 | relative viability (Elesclomol + Alpelisib; first compound 0.01 µM): 0.211 | relative viability (Elesclomol + Alpelisib; first compound 0.03162 µM): 0.143 | relative viability (Elesclomol + Alpelisib; first compound 0.1 µM): 0.0815

UMC-11
relative viability (Elesclomol + Bortezomib; first compound 0.003162 µM): 0.802 | relative viability (Elesclomol + Bortezomib; first compound 0.01 µM): 0.495 | relative viability (Elesclomol + Bortezomib; first compound 0.03162 µM): 0.491 | relative viability (Elesclomol + Bortezomib; first compound 0.1 µM): 0.352 | relative viability (Elesclomol + Pictilisib; first compound 0.003162 µM): 0.827 | relative viability (Elesclomol + Pictilisib; first compound 0.01 µM): 0.67 | relative viability (Elesclomol + Pictilisib; first compound 0.03162 µM): 0.561 | relative viability (Elesclomol + Pictilisib; first compound 0.1 µM): 0.44 | relative viability (Elesclomol + Crizotinib; first compound 0.003162 µM): 0.649 | relative viability (Elesclomol + Crizotinib; first compound 0.01 µM): 0.445 | relative viability (Elesclomol + Crizotinib; first compound 0.03162 µM): 0.343 | relative viability (Elesclomol + Crizotinib; first compound 0.1 µM): 0.183 | relative viability (Elesclomol + Linsitinib; first compound 0.003162 µM): 1.02 | relative viability (Elesclomol + Linsitinib; first compound 0.01 µM): 1.05 | relative viability (Elesclomol + Linsitinib; first compound 0.03162 µM): 0.672 | relative viability (Elesclomol + Linsitinib; first compound 0.1 µM): 0.615 | relative viability (Elesclomol + Alpelisib; first compound 0.003162 µM): 0.949 | relative viability (Elesclomol + Alpelisib; first compound 0.01 µM): 0.931 | relative viability (Elesclomol + Alpelisib; first compound 0.03162 µM): 0.488 | relative viability (Elesclomol + Alpelisib; first compound 0.1 µM): 0.363

Reference: the supplement of paper PMC10307832
